Results on two compounds are retold here after US4725591A, “β-lactamase inhibitory composition” (Takeda Chemical Industries, Ltd., priority 1980, dated 1988).

The test system of experiment [1] is Enterobacter cloacae TN 587. Description: Synergy with Cefotiam, agar dilution MIC. The experiment is classed as cell-based. The settings on record: 18 hours. The protocol: (§1) The inoculum concentration is 10^8 per ml, and the medium is prepared by using Trypticase® soy agar (Becton Dickinson & Company, USA).
Background: In agar dilution, organisms are placed on agar that contains the substance at set levels.

The test system of experiment [2] is Enterobacter cloacae IFO 12937. Kind of experiment: Synergy with Cefotiam, agar dilution MIC. The settings on record: Table 4, inoculum 10^8 per ml, 18 hours, Trypticase soy agar, unit assumed. The experiment is classed as cell-based. The protocol: as §1
For experiment [3], the system named is Citrobacter freundii IFO 12681. Description: Synergy with Cefotiam, agar dilution MIC. The experiment is classed as cell-based. Conditions: 18 hours. The protocol:
as §1

The test system of experiment [4] is Citrobacter freundii GN 1706. Kind of experiment: Synergy with Cefotiam, agar dilution MIC. The experiment is classed as cell-based. The settings on record: 18 hours; for MIC of Cefotiam alone: Trypticase soy agar, unit assumed. How it is done:
as §1

For another experiment, the system named is Proteus morganii TN 387. Description: Synergy with Cefotiam, agar dilution MIC. The experiment is classed as cell-based. Conditions: Table 4, inoculum 10^8 per ml, 18 hours, Trypticase soy agar, unit assumed. How it is done:
as §1

Experiment [5] relates to Citrobacter freundii TN 512. Description: Synergy with Cefotiam, agar dilution MIC. The experiment is classed as cell-based. The settings on record: Table 4, inoculum 10^8 per ml, 18 hours, Trypticase soy agar, unit assumed. How it is done:
as §1

The test system of experiment [6] is Serratia marcescens IFO 12648. Kind of experiment: Synergy with Cefotiam, agar dilution MIC. Conditions: 18 hours. The experiment is classed as cell-based. The protocol: as §1
The test system of experiment [7] is Proteus morganii IFO 3168. Kind of experiment: Synergy with Cefotiam, agar dilution MIC. The experiment is classed as cell-based. The settings on record: 18 hours. How it is done:
as §1

The next experiment relates to Proteus vulgaris GN 5297. Description: Synergy with Cefotiam, agar dilution MIC. The experiment is classed as cell-based. Conditions: 18 hours; for MIC of Cefotiam alone: Trypticase soy agar, unit assumed. The protocol:
as §1

In experiment [8] the target is T1, β-lactamase produced by Enterobacter cloacae IFO 12937 (Enterobacter cloacae, UniProt P05364).
T1 construct: The β-lactamase produced by Enterobacter cloacae IFO 12937; endogenous in cells; host or cells: Enterobacter cloacae IFO 12937
Kind of experiment: Inhibitor concentration required to inhibit β-lactamase (cephalosporinase) activity by 50%, micro-iodometric method. The experiment is classed as biochemical. The settings on record: Enterobacter cloacae IFO 12937 cephalosporinase; 0.05M phosphate buffer pH 7, 30° C., 10 minutes preincubation; cephalothin or ampicillin 0.1 mM; read-out: I50 (converted). The protocol: Determination of the inhibitor concentration required to inhibit the enzyme activity by 50%
The β-lactamase produced by Enterobacter cloacae IFO 12937 is used as a typical example of cephalosporinase, and that produced by Staphylococcus aureus 1840 as typical example of penicillinase. The β-lactamase in incubated is 0.05M phosphate buffer (pH 7) with an appropriate dilution of an inhibitor preparation at 30° C. for 10 minutes. Cephalothin or ampicillin is then added in an amount sufficient to produce a final concentration of 0.1 mM, and the enzymatic reaction is allowed to proceed for 10 minutes. The enzyme activity is determined by the micro-iodometric method [Journal of general Microbiology, vol. 33, page 121 (1963)]. Hereinafter, the inhibitor concentration required to inhibit the enzyme activity by 50% is expressed as I50. The I50 values for Enterobacter cloaceae are shown in Table 1, and the I50 values for Staphylococcus aureus in Table 2.

[9] abbreviates: Table 3, inoculum 10^8 per ml, Trypticase soy agar, unit assumed.
Where [10] appears, read: Table 3, 1 μg/ml test compound in agar, inoculum 10^8 per ml.

T1 sequence (P05364 21-381): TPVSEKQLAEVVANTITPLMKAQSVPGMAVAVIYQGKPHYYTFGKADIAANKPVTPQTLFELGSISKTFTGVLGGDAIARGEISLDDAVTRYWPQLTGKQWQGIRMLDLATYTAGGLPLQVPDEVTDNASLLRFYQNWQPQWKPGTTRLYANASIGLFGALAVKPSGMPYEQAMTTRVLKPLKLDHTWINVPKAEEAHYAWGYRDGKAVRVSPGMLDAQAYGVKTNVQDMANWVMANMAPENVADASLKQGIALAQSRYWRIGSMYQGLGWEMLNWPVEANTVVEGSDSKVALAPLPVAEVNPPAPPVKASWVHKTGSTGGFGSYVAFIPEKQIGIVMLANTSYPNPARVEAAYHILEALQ

Consider `CN(C)CCn1nnnc1SCC1=C(C(=O)O)N2C(=O)[C@@H](NC(=O)Cc3csc(N)n3)[C@H]2SC1` [Cefotiam, reference compound], for which the MIC of Cefotiam alone in [1] (setting [9]) is over 400 µg/mL; in experiment [2], 100 µg/mL; in [3] (setting [9]) it was 200 µg/mL; in [4] (Table 3, inoculum 10^8 per ml), 200 µg/mL; in [4] (Table 4, inoculum 10^8 per ml), 50 µg/mL; in the experiment with Proteus morganii TN 387, 200 µg/mL. Besides, the MIC of Cefotiam alone in experiment [5] was 625 µg/mL; in experiment [6] (setting [9]), over 400 µg/mL; in experiment [7] (setting [9]) it was 400 µg/mL; in the experiment on Proteus vulgaris GN 5297 (Table 3, inoculum 10^8 per ml), 100 µg/mL; in the experiment on Proteus vulgaris GN 5297 (Table 4, inoculum 10^8 per ml), 400 µg/mL.
As to `CC(C)ON=C(C(=O)NC1CN(S(=O)(=O)O)C1=O)c1csc(NC(=O)CCl)n1` (stereo not drawn) [Compound 28, Sodium 3-[2-(2-chloroacetamidothiazol-4-yl)-2-(1-methylethoxyimino)acetamido]-2-oxoazetidine-1-sulfonae], the “MIC of Cefotiam with 1 μg/ml of Compound” value is 50 in experiment [1] (setting [10]); 50 in [3] (setting [10]); 50 in [4] (setting [10]); 200 in [6] (setting [10]); 100 in [7] (setting [10]); 100 in the experiment with Proteus vulgaris GN 5297 (setting [10]). In [8], the IC50 is 2.42 µM.
